From ChEMBL document CHEMBL1127276, “Chemical and plasma hydrolyses of a diphenyl -aminomethyl phosphonate prodrug inhibitor of neutral endopeptidase 24.11” (Bioorg Med Chem Lett, 1994) come the findings set out here.

A short description of data set [1]: Ionization constant in acidic (COOH)medium. The format is physicochemical. To be noted: read-out: pKa2.
Data set [2] in a line: Ionization constant in slightly acidic(POH) medium. The format is physicochemical. To be noted: read-out: pKa3.
The nature of data set [3]: Ionization constant in basic (NH2+) medium. The format is physicochemical. To be noted: read-out: pKa4.
Data set [4] in a line: In vitro half life at 1.5 -5.6ug/mL, 37 degree C in human plasma. The format is ADME, cell-free.
Data set [5] in a line: In vitro half life at 1.5 -5.6ug/mL, 37 degree C in monkey plasma. The format is ADME, cell-free. Conditions: cercopithecidae.
A short description of data set [6]: In vitro half life at 1.5 -5.6ug/mL, 37 degree C in dog plasma. The format is ADME, Canis lupus familiaris.
Data set [7] is described as follows: In vitro half life at 1.5 -5.6ug/mL, 37 degree C in rat plasma. The format is ADME.
A short description of data set [8]: Half life at a pH 12.01 in […] medium. The format is ADME.
A short description of data set [9]: Half life at a pH 8.5 in Na2HPO4/NaH2PO4 medium. The format is ADME.
Data set [10] is described as follows: Half life at a pH 8.78 in KHCO3 medium. The format is ADME.
The nature of data set [11]: Half life at a pH 13.65 in KOH medium. The format is ADME.
A short description of data set [12]: Half life at a pH 8.44 in NaHCO3 medium. The format is ADME.

Consider `O=C(O)CCNC(=O)[C@H](Cc1ccc(-c2ccccc2)cc1)NCP(=O)(O)O`, for which the pKa is 5.5 in data set [1], 7.8 in data set [2] and 10 in [3].
As for `O=C(O)CCNC(=O)[C@H](Cc1ccc(-c2ccccc2)cc1)NCP(=O)(O)Oc1ccccc1`, the half-life in data set [4] is 4.2 h; in data set [5], over 7.8 h; in data set [6] it was 38 h; in data set [7], 9.4 h; in data set [8], over 0.1 h; in data set [9], over 6 h. The half-life was 0.51 h in data set [10], over 6 min in data set [11] and 0.55 h in data set [12]. Further, the pKa was 5.8 in [1] and 10 in [3].
Regarding `O=C(O)CCNC(=O)[C@H](Cc1ccc(-c2ccccc2)cc1)NCP(=O)(Oc1ccccc1)Oc1ccccc1`, the half-life was 1.4 h in data set [4]; 4.7 h in data set [5]; 13 h in data set [6]; 2.5 h in [7]; under 0.167 h in data set [8]; over 96 h in [9]. The half-life in data set [10] was 8.19 h; in [11], under 5 min; in data set [12] it was 8.68 h.
